The target in one experiment is T1, hCA I (Homo sapiens, UniProt P00915).
T1 construct: gene CA1; cytosolic isoform
Kind of experiment: stopped-flow CO2 hydrase assay. It counts as biochemical. From the text:
stopped-flow CO2 hydrase assay on hCA I

Another experiment concerns the target T2, mtCA 3 (Mycobacterium tuberculosis, UniProt P96878).
T2 construct: beta-class carbonic anhydrase
Kind of experiment: biochemical. Also on record: stopped-flow CO2 hydration assay, phenol red absorbance at 557 nm, 15 min pre-incubation, Ki by Cheng-Prusoff. Here is the method:
An Sx.18Mv-R Applied Photophysics (Oxford, UK) stopped-flow instrument has been used to assay the catalytic activity of various CA isozymes for CO2 hydration reaction. Phenol red (at a concentration of 0.2 mM) was used as indicator, working at the absorbance maximum of 557 nm, with 10 mM Hepes (pH 7.5) or 10 mM Tris (pH 8.5) as buffers, and 0.1 M Na2SO4 (for maintaining constant ionic strength, which is not inhibitory against these enzymes), following the CA-catalysed CO2 hydration reaction for a period of 10 s at 25 °C. The CO2 concentrations ranged from 1.7 to 17 mM for the determination of the kinetic parameters and […]. For each inhibitor at least six traces of the initial 5–10% of the reaction have been used for determining the initial rate. The uncatalysed rates were determined in the same manner and subtracted from the total observed rates. Stock solutions of inhibitors (10 mM) were prepared in distilled-deionised […] to 1 nM using the assay buffer. Inhibitor and enzyme solutions were pre-incubated together for 15 min (standard assay at room temperature) prior to assay, in order to allow for the formation of the enzyme–inhibitor complex. The inhibition constant (KI), was obtained by considering the classical Michaelis–Menten equation and the Cheng-Prusoff algorithm by using non-linear least squares fitting as reported earlier. The compounds 5 and 6 reported here were investigated as inhibitors of three CAs involved in crucial physiologic processes and known to act as drug targets, i.e. the human (h) isoforms hCA I and II (belonging to the α-CA class) and the bacterial enzyme mtCA3 from Mycobacterium tuberculosis (a β-class CA) (Table 3). Acetazolamide (AAZ), a clinically used sulphonamide has been employed as standard inhibitor in the assay.

The target in a further experiment is T3, hCA II (Homo sapiens, UniProt P00918).
T3 construct: gene CA2; cytosolic isoform
Kind of experiment: stopped-flow CO2 hydrase assay. Format: biochemical. From the text:
stopped-flow CO2 hydrase assay on hCA II

Here are results for 21 molecules from paper PMC6010129, “Evaluation of sulphonamide derivatives acting as inhibitors of human carbonic anhydrase isoforms I, II and Mycobacterium tuberculosisβ-class enzyme Rv3273” (Journal of Enzyme Inhibition and Medicinal Chemistry, 2018).

T2 sequence (P96878 entry or part of it): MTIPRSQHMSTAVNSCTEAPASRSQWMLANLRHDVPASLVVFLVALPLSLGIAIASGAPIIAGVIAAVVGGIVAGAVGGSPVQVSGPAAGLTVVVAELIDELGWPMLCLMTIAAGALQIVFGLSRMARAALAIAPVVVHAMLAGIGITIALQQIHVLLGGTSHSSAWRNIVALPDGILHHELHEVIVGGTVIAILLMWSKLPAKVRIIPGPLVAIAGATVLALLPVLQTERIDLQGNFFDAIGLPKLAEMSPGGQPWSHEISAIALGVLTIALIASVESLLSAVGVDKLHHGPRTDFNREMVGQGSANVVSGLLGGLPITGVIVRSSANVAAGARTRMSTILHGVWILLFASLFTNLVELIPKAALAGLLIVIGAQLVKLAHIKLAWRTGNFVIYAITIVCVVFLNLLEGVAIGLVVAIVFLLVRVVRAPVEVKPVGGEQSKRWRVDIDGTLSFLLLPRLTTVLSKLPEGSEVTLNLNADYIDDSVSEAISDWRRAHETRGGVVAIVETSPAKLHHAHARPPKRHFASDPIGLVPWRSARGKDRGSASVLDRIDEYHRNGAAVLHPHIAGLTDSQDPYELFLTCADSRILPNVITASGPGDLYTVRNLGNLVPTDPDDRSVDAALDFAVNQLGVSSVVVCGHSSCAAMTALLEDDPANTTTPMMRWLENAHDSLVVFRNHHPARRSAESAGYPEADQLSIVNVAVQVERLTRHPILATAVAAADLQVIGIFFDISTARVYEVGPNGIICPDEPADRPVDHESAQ
T1 sequence (P00915 2-261): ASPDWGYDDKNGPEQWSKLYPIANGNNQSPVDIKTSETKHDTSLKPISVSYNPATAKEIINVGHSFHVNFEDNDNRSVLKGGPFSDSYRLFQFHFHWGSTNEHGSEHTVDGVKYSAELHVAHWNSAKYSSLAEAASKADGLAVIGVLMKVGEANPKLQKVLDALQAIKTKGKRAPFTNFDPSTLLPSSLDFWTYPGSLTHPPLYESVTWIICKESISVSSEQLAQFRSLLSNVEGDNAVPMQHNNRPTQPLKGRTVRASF

On to `NS(=O)(=O)c1ccc(NCC(=O)N2N=C(c3ccc(Cl)cc3)CC2c2ccccc2)cc1` (stereo not drawn) [5a, 4-((2-(3-(4-Chlorophenyl)-5-phenyl-4,5-dihydro-1H-pyrazol-1-yl)-2-oxoethyl)amino) benzenesulphonamide], for which the figures for the Ki on hCA I, at mtCA 3 and on hCA II were 306 nM, 1800 nM and 282 nM, respectively.

In the case of `NS(=O)(=O)c1ccc(NCC(=O)N2N=C(c3ccc(Cl)cc3)CC2c2ccc(F)cc2)cc1` (stereo not drawn) [5b, 4-((2-(3-(4-Chlorophenyl)-5-(4-fluorophenyl)-4,5-dihydro-1H-pyrazol-1-yl)-2-oxoethyl)amino) benzenesulphonamide], the results for the Ki on hCA I and at hCA II were 441 nM and 500 nM, respectively.

On to `NS(=O)(=O)c1ccc(NCC(=O)N2N=C(c3ccc(Cl)cc3)CC2c2ccc(Br)cc2)cc1` (stereo not drawn) [5c, 4-((2-(3-(4-Chlorophenyl)-5-(4-bromophenyl)-4,5-dihydro-1H-pyrazol-1-yl)-2-oxoethyl)amino) benzenesulphonamide], for which the figures for the Ki on hCA I, on mtCA 3 and on hCA II were 634 nM, 732 nM and 2850 nM, respectively.

In the case of `Cc1ccc(C2CC(c3ccc(Cl)cc3)=NN2C(=O)CNc2ccc(S(N)(=O)=O)cc2)cc1` (stereo not drawn) [5d, 4-((2-(3-(4-Chlorophenyl)-5-(4-methylphenyl)-4,5-dihydro-1H-pyrazol-1-yl)-2-oxoethyl)amino)benzenesulphonamide], the Ki is 93.4 nM at hCA I, 175 nM at mtCA 3 and 426 nM on hCA II.

As for `NS(=O)(=O)c1ccc(NCC(=O)N2N=C(c3ccc(Cl)cc3)CC2c2ccncc2)cc1` (stereo not drawn) [5e, 4-((2-(3-(4-Chlorophenyl)-5-(pyridin-4-yl)-4,5-dihydro-1H-pyrazol-1-yl)-2-oxoethyl)amino) benzenesulphonamide], the Ki was found to be 175 nM at hCA I, 138 nM at mtCA 3 and 42.3 nM at hCA II.

Turning to `NS(=O)(=O)c1ccc(NCC(=O)N2N=C(c3ccc(Cl)cc3)CC2c2ccccc2Cl)cc1` (stereo not drawn) [5f, 4-((2-(3-(4-Chlorophenyl)-5-(2-chlorophenyl)-4,5-dihydro-1H-pyrazol-1-yl)-2-oxoethyl)amino)benzenesulphonamide], the Ki turned out to be 445 nM on hCA I, 215 nM at mtCA 3 and 433 nM at hCA II.

On to `NS(=O)(=O)c1ccc(NCC(=O)N2N=C(c3ccc(Cl)cc3)CC2c2ccccc2O)cc1` (stereo not drawn) [5g, 4-((2-(3-(4-Chlorophenyl)-5-(2-hydroxyphenyl)-4,5-dihydro-1H-pyrazol-1-yl)-2-oxoethyl)amino)benzenesulphonamide], for which the Ki was determined as 174 nM on hCA I, 147 nM on mtCA 3 and 578 nM at hCA II.

Turning to `COc1ccc(C2CC(c3ccc(Cl)cc3)=NN2C(=O)CNc2ccc(S(N)(=O)=O)cc2)cc1OC` (stereo not drawn) [5h, 4-((2-(3-(4-Chlorophenyl)-5-(3,4-dimethoxyphenyl)-4,5-dihydro-1H-pyrazol-1-yl)-2-oxoethyl)amino)benzenesulphonamide], the results for the Ki on hCA I, on mtCA 3 and on hCA II were 280 nM, 186 nM and 424 nM, respectively.

Regarding `NS(=O)(=O)c1ccc(NCC(=O)N2N=C(c3ccc(Cl)cc3)CC2c2cccs2)cc1` (stereo not drawn) [5i, 4-((2-(3-(4-Chlorophenyl)-5-(thiophen-2-yl)-4,5-dihydro-1H-pyrazol-1-yl)-2-oxoethyl)amino)benzenesulphonamide], the results for the inhibition constant (Ki) at hCA I, on mtCA 3 and on hCA II were 276 nM, 233 nM and 373 nM, respectively.

For `NS(=O)(=O)c1ccc(NCC(=O)N2N=C(c3ccc(Cl)cc3)CC2c2c3ccccc3cc3ccccc23)cc1` (stereo not drawn) [5j, 4-((2-(5-(Anthracen-9-yl)-3-(4-chlorophenyl)-4,5-dihydro-1H-pyrazol-1-yl)-2-oxoethyl)amino)benzenesulphonamide], the Ki came to 91.8 nM on hCA I, 157 nM at mtCA 3 and 2020 nM on hCA II.

On to `NS(=O)(=O)c1ccc(NCC(=O)N2N=C(c3ccc(Cl)cc3)CC2c2c[nH]c3ccccc23)cc1` (stereo not drawn) [5k, 4-((2-(3-(4-Chlorophenyl)-5-(1H-indol-3-yl)-4,5-dihydro-1H-pyrazol-1-yl)-2-oxoethyl)amino)benzenesulphonamide], for which the Ki amounted to 440 nM at hCA I, 127 nM at mtCA 3 and 392 nM on hCA II.

For `CC1=NN(C(=O)CNc2ccc(S(N)(=O)=O)cc2)C(c2ccccc2)C1` (stereo not drawn) [5l, 4-((2-(3-Methyl-5-phenyl-4,5-dihydro-1H-pyrazol-1-yl)-2-oxoethyl)amino) benzene sulphonamide], the Ki at hCA I came out at 760 nM; at mtCA 3, 1580 nM; on hCA II it was 810 nM.

Take `COc1ccc(C2CC(C)=NN2C(=O)CNc2ccc(S(N)(=O)=O)cc2)cc1` (stereo not drawn) [5m, 4-((2-(5-(4-Methoxyphenyl)-3-methyl-4,5-dihydro-1H-pyrazol-1-yl)-2-oxoethyl)amino)benzenesulphonamide]: the Ki was 2370 nM on hCA I, over 10000 nM on mtCA 3 and 5550 nM on hCA II.

Turning to `CC1=NN(C(=O)CNc2ccc(S(N)(=O)=O)cc2)C(c2ccc(Cl)cc2)C1` (stereo not drawn) [5n, 4-((2-(5-(4-Chlorophenyl)-3-methyl-4,5-dihydro-1H-pyrazol-1-yl)-2-oxoethyl)amino)benzenesulphonamide], the Ki at hCA I worked out at 835 nM; on mtCA 3, 1290 nM; on hCA II, 944 nM.

Turning to `CC1=NN(C(=O)CNc2ccc(S(N)(=O)=O)cc2)C(c2ccc(C)cc2)C1` (stereo not drawn) [5o, 4-((2-(3-Methyl-5-(p-tolyl)-4,5-dihydro-1H-pyrazol-1-yl)-2-oxoethyl)amino)benzene sulphonamide], the figures for the Ki on hCA I, at mtCA 3 and at hCA II were 898 nM, 275 nM and 3460 nM, respectively.

`CC1=NN(C(=O)CNc2ccc(S(N)(=O)=O)cc2)C(c2ccc(F)cc2)C1` (stereo not drawn) [5p, 4-((2-(5-(4-Fluorophenyl)-3-methyl-4,5-dihydro-1H-pyrazol-1-yl)-2-oxoethyl)amino)benzenesulphonamide]: the values for the Ki on hCA I, at mtCA 3 and at hCA II were 665 nM, 250 nM and 903 nM, respectively.

Take `CC1=NN(C(=O)CNc2ccc(S(N)(=O)=O)cc2)C(c2ccccc2Cl)C1` (stereo not drawn) [5q, 4-((2-(5-(2-Chlorophenyl)-3-methyl-4,5-dihydro-1H-pyrazol-1-yl)-2-oxoethyl)amino)benzenesulphonamide]: the Ki at hCA I worked out at 742 nM; at mtCA 3 it was 623 nM; on hCA II it was 648 nM.

On to `CC1=NN(C(=O)CNc2ccc(S(N)(=O)=O)cc2)C(c2ccccc2O)C1` (stereo not drawn) [5r, 4-((2-(5-(2-Hydroxyphenyl)-3-methyl-4,5-dihydro-1H-pyrazol-1-yl)-2-oxoethyl)amino)benzenesulphonamide], for which the inhibition constant Ki at hCA I came to 721 nM; on mtCA 3 it was 1590 nM; on hCA II, 83.1 nM.

With `CC1=NN(C(=O)CNc2ccc(S(N)(=O)=O)cc2)C(c2ccc(O)cc2)C1` (stereo not drawn) [5s, 4-((2(5-(4-Hydroxyphenyl)-3-methyl-4,5-dihydro-1H-pyrazol-1-yl)-2-oxoethyl)amino)benzenesulphonamide], the Ki on hCA I is 738 nM; on mtCA 3, 265 nM; on hCA II it was 73.6 nM.

Regarding `COc1ccc(/C=N/NC(=O)CNc2ccc(S(N)(=O)=O)cc2)cc1OC` [6e, 4-((2-(2-(3,4-Dimethoxybenzylidene)hydrazinyl)-2-oxoethyl)amino) benzenesulphonamide], the Ki at hCA I turned out to be 1800 nM; at hCA II, 758 nM.

For `NS(=O)(=O)c1ccc(NCC(=O)N/N=C/c2ccc(O)cc2)cc1` [6g, 4-((2-(2-(4-Hydroxybenzylidene)hydrazinyl)-2-oxoethyl)amino) benzenesulphonamide], the Ki at hCA I was found to be 327 nM; at hCA II it was 255 nM.

One may read the Ki as a dissociation constant, usually derived from enzyme kinetics or from competition with a known ligand. Low values mean a stronger hold on the target, high ones a looser hold on the target.
